Experimental findings from patent publication US9399637B2, “Substituted heteroaryl compounds and methods of use” (Calitor Sciences, LLC, priority 2014, dated 2016) are described below.

The nature of series [1]: Pharmacokinetics after intravenous and oral administration in rats. It is filed as in vivo. Conditions: iv dosing, 1 mg/kg; for AUC(0-t) / half-life / Vd: rat, plasma; for Vd: read-out: Vss. The protocol: The LC/MS/MS system used in the analysis consists of an Agilent 1200 Series vacuum degasser, binary pump, well-plate autosampler, thermostatted column compartment, the Agilent G6430 Triple Quadrupole Mass Spectrometer with an electrosprayionization (ESI) source. Quantitative analysis was carried out using MRM mode. The parameters for MRM transitions are in the Table A.
An Agilent XDB-C18, 2.1×30 mm, 3.5 μM column was used for the analysis. 5 μL of the samples were injected. Analysis condition: The mobile phase was 0.1% formic acid in water (A) and 0.1% formic acid in methanol (B). The flow rate was 0.4 mL/min. And the gradient of Mobile phase was in the Table B.
Alternatively, an Agilent 6330 series LC/MS/MS spectrometer equipped with G1312A binary pumps, a G1367A autosampler and a G1314C UV detector were used in the analysis. An ESI source was used on the LC/MS/MS spectrometer. The analysis was done in positive ion mode as appropriate and the MRM transition for each analyte was optimized using standard solution. A Capcell MP-C18 100×4.6 mm I.D., […] column (Phenomenex, Torrance, Calif., USA) was used during the analysis. The mobile phase was 5 mM ammonia acetate, 0.1% MeOH in water (A): 5 mM ammonia acetate, 0.1% MeOH in acetonitrile (B) (70:30, v/v). The flow rate was 0.6 mL/min. Column was maintained at ambient temperature. 20 μL of the samples were injected.
The compounds disclosed herein are assessed in pharmacokinetic studies in mice, rats, dogs or monkeys. The compounds are administered as a water solution, 2% HPMC+1% TWEEN®80 in water solution, 5% DMSO+5% solutol in saline, 4% MC suspension or capsule. For the intravenous administration, the animals are generally given at 1 or 2 mg/kg dose. For the oral (p.o.) dosing, mice and rats are generally given 5 or 10 mg/kg dose, and dogs and monkeys are generally given 10 mg/kg dose. The blood samples (0.3 mL) are drawn at 0.25, 0.5, 1.0, 2.0, 3.0, 4.0, 6.0, 8.0, 12 and 24 h time points or 0.083, 0.25, 0.5, 1.0, 2.0, 4.0, 6.0, 8.0 and 24 h time points and centrifuged at 3,000 or 4000 rpm for 2 to 10 min. The plasma solutions are collected, and stored at −20° C. or −70° C. until analyzed by LC/MS/MS as described above.

For a further series, the target named is T1, JAK1 (h) (Homo sapiens, UniProt P23458).
T1 construct: purchased Millipore UK Ltd (assays run there as a service)
In words: JAK1 kinase assay. It is filed as biochemical. Here is the method: (§1) Kinase assays can be performed by measurement of incorporation of γ-^33P ATP into immobilized myelin basic protein (MBP). High binding white 384 well plates (Greiner) are coated with MBP (Sigma #M-1891) by incubation of 60 μL/well of 20 μg/mL MBP in Tris-buffered saline (TBS; 50 mM Tris pH 8.0, 138 mM NaCl, 2.7 mM KCl) for 24 h at 4° C. Plates are washed 3× with 100 μL TBS. Kinase reactions are carried out in a total volume of 34 μL in kinase buffer (5 mM Hepes pH 7.6, 15 mM NaCl, 0.01% bovine gamma globulin (Sigma #I-5506), 10 mM MgCl2, 1 mM DTT, 0.02% TritonX-100). Compound dilutions are performed in DMSO and added to assay wells to a final DMSO concentration of 1%. Each data point is measured in duplicate, and at least two duplicate assays are performed for each individual compound determination. Enzyme is added to final concentrations of 10 nM or 20 nM, for example. A mixture of unlabeled ATP and γ-^33P ATP is added to start the reaction (2×10^6 cpm of γ-^33P ATP per well (3000 Ci/mmole) and 10 μM unlabeled ATP, typically. The reactions are carried out for 1 h at room temperature with shaking Plates are washed 7× with TBS, followed by the addition of 50 μL/well scintillation fluid (Wallac). Plates are read using a Wallac Trilux counter. This is only one format of such assays; various other formats are possible, as known to one skilled in the art.
The above assay procedure can be used to determine the IC50 for inhibition and/or the inhibition constant, Ki. The IC50 is defined as the concentration of compound required to reduce the enzyme activity by 50% under the condition of the assay. The IC50 value is estimated by preparing a 10 point curve using a ½ log dilution series (for example, a typical curve may be prepared using the following compound concentrations: 3 μM, 1 μM, 0.3 μM, 0.1 μM, 0.03 μM, 0.01 μM, 0.003 μM, 0.001 μM, 0.0003 μM and 0 μM).
JAK1 (h) is incubated with 20 mM Tris/HCl pH 7.5, 0.2 mM EDTA, 500 μM […], 10 mM MgAcetate and [γ-^33P-ATP] (specific activity approx. 500 cpm/pmol, concentration as required).
The kinase assays described herein were performed at Millipore UK Ltd, Dundee Technology Park, Dundee DD2 1SW, UK.

The target of a further series is T2, TYK2 (h) (Homo sapiens, UniProt P29597).
T2 construct: purchased Millipore UK Ltd (assays run there as a service)
Description: TYK2 kinase assay. It is filed as biochemical. The protocol: as §1, with “art. […]” for “art.”

In a further series the target is T3, Aurora-A (h) (Homo sapiens, UniProt O14965).
T3 construct: purchased Millipore UK Ltd (assays run there as a service)
T3 sequence (O14965 1-403): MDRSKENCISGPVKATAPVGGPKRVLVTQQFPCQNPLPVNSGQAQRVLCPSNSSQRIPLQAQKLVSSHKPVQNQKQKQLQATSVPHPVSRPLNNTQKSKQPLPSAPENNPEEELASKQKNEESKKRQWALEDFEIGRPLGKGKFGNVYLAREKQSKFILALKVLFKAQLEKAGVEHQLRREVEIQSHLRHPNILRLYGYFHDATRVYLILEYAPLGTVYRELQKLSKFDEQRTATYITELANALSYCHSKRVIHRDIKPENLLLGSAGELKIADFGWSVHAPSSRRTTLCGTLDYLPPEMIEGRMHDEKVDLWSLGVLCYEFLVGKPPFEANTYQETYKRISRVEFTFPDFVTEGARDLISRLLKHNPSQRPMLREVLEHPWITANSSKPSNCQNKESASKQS
Description: Aurora-A kinase assay. It is filed as biochemical. Here is the method:
as §1, with “art. […]” for “art.”

The structures appear in SMILES notation.

T1 sequence (P23458 whole entry): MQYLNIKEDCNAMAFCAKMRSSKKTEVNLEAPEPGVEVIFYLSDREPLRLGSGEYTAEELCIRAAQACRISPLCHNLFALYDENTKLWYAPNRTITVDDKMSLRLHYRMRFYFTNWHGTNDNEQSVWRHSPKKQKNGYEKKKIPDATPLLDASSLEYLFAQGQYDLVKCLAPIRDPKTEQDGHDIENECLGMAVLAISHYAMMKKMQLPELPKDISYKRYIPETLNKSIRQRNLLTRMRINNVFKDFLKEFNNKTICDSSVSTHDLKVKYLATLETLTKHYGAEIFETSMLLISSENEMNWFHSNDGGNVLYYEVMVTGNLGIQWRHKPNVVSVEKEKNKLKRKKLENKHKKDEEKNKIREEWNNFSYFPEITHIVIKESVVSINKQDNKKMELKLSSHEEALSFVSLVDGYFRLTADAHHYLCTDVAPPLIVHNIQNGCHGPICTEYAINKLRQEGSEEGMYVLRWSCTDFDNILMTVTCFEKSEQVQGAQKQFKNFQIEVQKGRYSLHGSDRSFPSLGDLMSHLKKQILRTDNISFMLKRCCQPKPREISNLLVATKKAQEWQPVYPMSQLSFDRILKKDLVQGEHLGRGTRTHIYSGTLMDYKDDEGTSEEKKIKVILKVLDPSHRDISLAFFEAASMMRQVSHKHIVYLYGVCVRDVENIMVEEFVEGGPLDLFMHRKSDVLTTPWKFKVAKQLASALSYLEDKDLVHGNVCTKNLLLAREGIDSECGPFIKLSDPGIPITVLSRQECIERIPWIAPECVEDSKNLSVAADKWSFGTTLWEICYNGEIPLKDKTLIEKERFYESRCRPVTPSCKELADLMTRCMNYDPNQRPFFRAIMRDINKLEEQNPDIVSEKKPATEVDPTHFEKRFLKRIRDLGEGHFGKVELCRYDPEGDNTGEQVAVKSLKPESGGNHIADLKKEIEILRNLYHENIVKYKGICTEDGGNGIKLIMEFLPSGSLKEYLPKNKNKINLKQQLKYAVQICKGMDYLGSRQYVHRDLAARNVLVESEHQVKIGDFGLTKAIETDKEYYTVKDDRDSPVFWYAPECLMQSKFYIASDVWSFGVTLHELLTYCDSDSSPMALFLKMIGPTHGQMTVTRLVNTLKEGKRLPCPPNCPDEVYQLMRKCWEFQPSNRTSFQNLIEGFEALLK
T2 sequence (P29597 whole entry): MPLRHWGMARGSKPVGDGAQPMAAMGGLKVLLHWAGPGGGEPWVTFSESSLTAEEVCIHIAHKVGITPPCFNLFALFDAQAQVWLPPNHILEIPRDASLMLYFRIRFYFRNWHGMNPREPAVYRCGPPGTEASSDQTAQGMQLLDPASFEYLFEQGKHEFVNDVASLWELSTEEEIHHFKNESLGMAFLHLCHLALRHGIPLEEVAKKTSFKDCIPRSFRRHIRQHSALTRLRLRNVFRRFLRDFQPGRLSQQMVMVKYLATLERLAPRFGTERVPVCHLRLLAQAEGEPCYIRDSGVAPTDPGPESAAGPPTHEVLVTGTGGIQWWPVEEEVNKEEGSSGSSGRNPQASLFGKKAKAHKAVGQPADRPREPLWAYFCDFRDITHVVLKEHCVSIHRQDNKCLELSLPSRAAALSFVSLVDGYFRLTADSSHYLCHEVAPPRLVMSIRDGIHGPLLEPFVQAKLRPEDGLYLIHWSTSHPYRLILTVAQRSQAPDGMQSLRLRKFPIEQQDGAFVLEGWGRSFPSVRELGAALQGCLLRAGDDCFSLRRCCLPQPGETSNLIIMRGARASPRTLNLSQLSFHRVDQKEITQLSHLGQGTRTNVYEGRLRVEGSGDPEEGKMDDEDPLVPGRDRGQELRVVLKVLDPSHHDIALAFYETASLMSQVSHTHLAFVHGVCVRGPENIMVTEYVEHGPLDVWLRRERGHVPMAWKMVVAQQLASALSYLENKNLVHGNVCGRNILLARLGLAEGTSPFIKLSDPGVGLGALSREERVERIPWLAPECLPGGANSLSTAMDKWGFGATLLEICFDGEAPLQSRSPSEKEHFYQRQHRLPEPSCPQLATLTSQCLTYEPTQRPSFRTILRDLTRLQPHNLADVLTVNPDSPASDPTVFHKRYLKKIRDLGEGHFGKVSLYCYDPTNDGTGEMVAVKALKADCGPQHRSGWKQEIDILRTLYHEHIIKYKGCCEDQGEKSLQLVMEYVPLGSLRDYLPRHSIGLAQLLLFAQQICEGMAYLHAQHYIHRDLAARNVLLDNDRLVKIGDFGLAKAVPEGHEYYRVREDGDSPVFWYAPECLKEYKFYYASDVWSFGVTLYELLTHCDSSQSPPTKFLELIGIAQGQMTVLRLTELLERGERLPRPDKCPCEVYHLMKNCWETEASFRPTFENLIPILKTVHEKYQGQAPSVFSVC

One may read the AUC(0-t) as the area under the concentration-time curve up to a stated or last time point. A higher AUC(0-t) goes with high exposure. A word on the half-life: it is the time in which the quantity being followed falls by half. Read a low half-life as fast loss. What is called IC50 is the concentration at which inhibition is half-maximal. Higher therefore signals lower potency. Consider `Cc1c2ccc(Nc3ncc(Cl)c(NC4CC5CN(C(=O)CC#N)CC5C4)n3)cc2nn1C` (stereo not drawn) [Ex. 4, 3-(5-((5-chloro-2-((2,3-dimethyl-2H-indazol-6-yl)amino)pyrimidin-4-yl)amino)hexahydrocyclopenta[c]pyrrol-2(1H)-yl)-3-oxopropanenitrile], for which, in series [1], the Cl/F came out at 2.17 L/h/kg, the AUC(0-t) was 0.458 µg·h/mL, the half-life is 1.36 h and the Vd was 1.44 L/kg. Further, the IC50 at JAK1 (h) was determined as 0.001 µM. In addition, the midpoint of inhibition against TYK2 (h), the IC50, lay at 0.02 µM. At Aurora-A (h), this compound gave an IC50 of 0.104 µM.

Regarding `CC(=O)N1CCC2(CCC(Nc3nc(Nc4ccc5c(C)n(C)nc5c4)ncc3Cl)CC2)CC1` [Ex. 7, 1-(9-((5-chloro-2-((2,3-dimethyl-2H-indazol-6-yl)amino)pyrimidin-4-yl)amino)-3-azaspiro[5.5]undecan-3-yl)ethanone], in series [1], the Cl/F is reported as 1.47 L/h/kg, the AUC(0-t) came to 0.688 µg·h/mL, the half-life was 0.85 h and the Vd amounted to 1.68 L/kg. Further, it took 0.0009 µM to reach half-maximal inhibition against JAK1 (h) (IC50).
